This passage reports IC50 results from US9765018B2, “IDO inhibitors” (BRISTOL-MYERS SQUIBB COMPANY, priority 2013, dated 2017).

The target of the assay is IDO (Homo sapiens (Human), UniProt P14902). Description: LLE_IDO_ABS_DR (IDO assay, method not described).
Chain of IDO (P14902 whole entry): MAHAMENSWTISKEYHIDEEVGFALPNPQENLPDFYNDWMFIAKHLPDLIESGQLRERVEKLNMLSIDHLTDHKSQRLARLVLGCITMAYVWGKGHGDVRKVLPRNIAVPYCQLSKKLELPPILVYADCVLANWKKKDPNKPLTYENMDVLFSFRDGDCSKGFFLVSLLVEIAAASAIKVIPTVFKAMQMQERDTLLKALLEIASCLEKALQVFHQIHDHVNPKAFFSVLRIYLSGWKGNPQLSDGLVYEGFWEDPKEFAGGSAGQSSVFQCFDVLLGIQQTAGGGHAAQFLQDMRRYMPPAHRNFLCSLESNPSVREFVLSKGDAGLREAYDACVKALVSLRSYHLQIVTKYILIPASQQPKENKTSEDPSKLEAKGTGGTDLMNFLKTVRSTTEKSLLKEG
As for `C/C=C/Cc1cc(-c2cc(F)ccc2C(=O)O)cc(NC(=O)Nc2ccc(C)cc2)c1OCCC` [Example 21, (E)-3′-(But-2-en-1-yl)-5-fluoro-4′-propoxy-5′-(3-(p-tolyl)ureido)-[1,1′-biphenyl]-2-carboxylic acid], the IC50 is 150 nM.
The value for `CCCCc1cc(-c2ccccc2C(=O)O)cc(NC(=O)Nc2ccc(C)cc2)c1OCCC` [Example 23, 3′-Butyl-4′-propoxy-5′-(3-(p-tolyl)ureido)-[1,1′-biphenyl]-2-carboxylic acid] was 130 nM.
The value for `CCCCc1cc(-c2cc(F)ccc2C(=O)O)cc(NC(=O)Nc2ccc(C)cc2)c1OCCC` [Example 24] was 80 nM; that for `C/C=C/Cc1cc(-c2ccccc2-c2nnn[nH]2)cc(NC(=O)Nc2ccc(C)cc2)c1OCc1ccccc1` [Example 25, (E)-1-(4-(Benzyloxy)-5-(but-2-en-1-yl)-2′-(1H-tetrazol-5-yl)-[1,1′-biphenyl]-3-yl)-3-(p-tolyl)urea] was 160 nM.
The value for `C/C=C/Cc1cc(-c2ccccc2C(=O)O)cc(NC(=O)Nc2ccc(C)cc2)c1OCc1ccccc1` [Example 26, (E)-4′-(Benzyloxy)-3′-(but-2-en-1-yl)-5′-(3-(p-tolyl)ureido)-[1,1′-biphenyl]-2-carboxylic acid] was 650 nM.
Turning to `C/C=C/Cc1cc(-c2cc(F)ccc2C(=O)O)cc(NC(=O)Nc2ccc(C)cc2)c1OCc1ccccc1` [Example 27, (E)-4′-(Benzyloxy)-3′-(but-2-en-1-yl)-5-fluoro-5′-(3-(p-tolyl)ureido)-[1,1′-biphenyl]-2-carboxylic acid], the IC50 worked out at 850 nM.
For the molecule `Cc1ccc(NC(=O)Nc2cc(-c3ccccc3-c3nnn[nH]3)ccc2OCc2ccccc2)cc1` [Example 28, 1-(4-(Benzyloxy)-2′-(1H-tetrazol-5-yl)-[1,1′-biphenyl]-3-yl)-3-(p-tolyl)urea], half-maximal inhibition (IC50) required 250 nM.
In the case of `CCCOc1c(/C=C/C=C(F)F)cc(-c2cc(F)ccc2C(=O)O)cc1NC(=O)Nc1ccc(C)cc1` [Example 33, (E)-3′-(4,4-Difluorobuta-1,3-dien-1-yl)-5-fluoro-4′-propoxy-5′-(3-(p-tolyl)ureido)-[1,1′-biphenyl]-2-carboxylic acid] it was 110 nM; in that of `CCCOc1c(C/C=C/c2ccccc2)cc(-c2ccccc2-c2nnn[nH]2)cc1NC(=O)Nc1ccc(C)cc1` [Example 34, (E)-1-(5-Cinnamyl-4-propoxy-2′-(1H-tetrazol-5-yl)biphenyl-3-yl)-3-p-tolylurea], 170 nM; in that of `CCCOc1c(C/C=C/c2ccccc2)cc(-c2ccccc2C(=O)O)cc1NC(=O)Nc1ccc(C)cc1` [Example 35, 3′-Cinnamyl-4′-propoxy-5′-(3-p-tolylureido)biphenyl-2-carboxylic acid], 100 nM.
The value for `CCCOc1c(CCCc2ccccc2)cc(-c2ccccc2-c2nnn[nH]2)cc1NC(=O)Nc1ccc(C)cc1` [Example 37, 1-(5-(3-Phenylpropyl)-4-propoxy-2′-(1H-tetrazol-5-yl)biphenyl-3-yl)-3-p-tolylurea] was 130 nM; that for `CCCOc1c(C/C=C/c2ccccc2)cc(-c2ccccc2-c2nnn[nH]2)cc1NC(=O)Nc1ccccc1F` [Example 38, (E)-1-(5-Cinnamyl-4-propoxy-2′-(1H-tetrazol-5-yl)biphenyl-3-yl)-3-(2-fluorophenyl)urea] was 210 nM.
The value for `CCCOc1c(CCCc2ccccc2)cc(-c2ccccc2-c2nnn[nH]2)cc1NC(=O)Nc1ccccc1F` [Example 39, 1-(2-Fluorophenyl)-3-(5-(3-phenylpropyl)-4-propoxy-2′-(1H-tetrazol-5-yl)biphenyl-3-yl)urea] was 50 nM; that for `CCCCc1cc(-c2cc(F)ccc2C(=O)O)cc(NC(=O)Nc2ccc(C)cc2)c1OCc1ccccc1` [Example 40, 4′-(Benzyloxy)-3′-butyl-5-fluoro-5′-(3-p-tolylureido)biphenyl-2-carboxylic acid] was 130 nM; that for `CC(C)(C)c1ccccc1Oc1ccc(-c2ccc(F)cc2-c2nnn[nH]2)cc1NC(=O)Nc1ccccc1Cl` [Example 195, 1-(4-(2-tert-butylphenoxy)-4′-fluoro-2′-(1H-tetrazol-5-yl)biphenyl-3-yl)-3-(2-chlorophenyl)urea] was 1860 nM.
As for `Cc1ccc(NC(=O)Nc2cc(-c3ccc(F)cc3-c3nnn[nH]3)ccc2Oc2ccccc2C(C)(C)C)cc1` [Example 197, 1-(4-(2-tert-butylphenoxy)-4′-fluoro-2′-(1H-tetrazol-5-yl)biphenyl-3-yl)-3-p-tolylurea], the IC50 worked out at 200 nM.
The value for `CC(C)(C)c1ccccc1Oc1ccc(-c2ccc(Cl)cc2-c2nnn[nH]2)cc1NC(=O)Nc1ccccc1Cl` [Example 198, 1-(4-(2-tert-butylphenoxy)-4′-chloro-2′-(1H-tetrazol-5-yl)biphenyl-3-yl)-3-(2-chlorophenyl)urea] was 1490 nM; that for `Cc1ccc(NC(=O)Nc2cc(-c3ccc(Cl)cc3-c3nnn[nH]3)ccc2Oc2ccccc2C(C)(C)C)cc1` [Example 199, 1-(4-(2-tert-butylphenoxy)-4′-chloro-2′-(1H-tetrazol-5-yl)biphenyl-3-yl)-3-p-tolylurea] was 90 nM.
In turn, `CC(C)(C)c1ccccc1Oc1ccc(-c2cncc(C(=O)O)c2)cc1NC(=O)Nc1ccc(OC(F)(F)F)cc1` [Example 266, 5-(4-(2-tert-butylphenoxy)-3-(3-(4-(trifluoromethoxy)phenyl)ureido)phenyl)nicotinic acid] yielded an IC50 of 2150 nM.
The value for `Cc1ccc(NC(=O)Nc2cc(-c3cc(F)ccc3C(=O)O)ccc2OC(CCC(F)(F)F)c2ccccc2Cl)cc1` (centres unmarked) [Example 267, 4′-(1-(2-Chlorophenyl)-4,4,4-trifluorobutoxy)-5-fluoro-3′-(3-(p-tolyl)ureido)-[1,1′-biphenyl]-2-carboxylic acid] was 390 nM.
In the case of `CCC(Oc1ccc(-c2cc(F)ccc2C(=O)O)cc1NC(=O)Nc1ccc(C)cc1)c1ccccc1` (centres unmarked) [Example 268] it was 690 nM; in that of `CCCCC(Oc1ccc(-c2cc(F)ccc2C(=O)O)cc1NC(=O)Nc1ccc(C)cc1)C1CCCCC1` (centres unmarked) [Example 269], 1100 nM; in that of `CCC[C@@H](Oc1ccc(-c2cc(F)ccc2C(=O)O)cc1NC(=O)Nc1ccc(C)cc1)c1ccccc1` [Example 270], 20 nM.
Molecule `CCC(Oc1ccc(-c2ccccc2-c2nnn[nH]2)cc1NC(=O)Nc1ccc(C)cc1)c1ccccc1` (centres unmarked) [Example 271] showed an IC50 of 30 nM. This IC50 is about 1.5-fold higher than that of the molecule before.
Molecule `CCCCC(Oc1ccc(-c2ccccc2-c2nnn[nH]2)cc1NC(=O)Nc1ccc(C)cc1)C1CCCCC1` (centres unmarked) [Example 272] yielded a concentration for half-maximal inhibition (IC50) of 100 nM.
`CCC[C@@H](Oc1ccc(-c2ccccc2-c2nnn[nH]2)cc1NC(=O)Nc1ccc(C)cc1)c1ccccc1` [Example 273] returned an IC50 of 40 nM. Compared with the last molecule, the IC50 is about 2.5-fold lower.
The value for `CCC[C@H](Oc1ccc(-c2ccccc2-c2nnn[nH]2)cc1NC(=O)Nc1ccc(C)cc1)c1ccccc1` [Example 274] was 3510 nM; that for `CCC[C@H](Oc1ccc(-c2cc(F)ccc2C(=O)O)cc1NC(=O)Nc1ccc(C)cc1)c1ccccc1` [Example 275] was 1740 nM; that for `CCCOc1c(NC(=O)Nc2ccc(C3CC3)cc2)cc(-c2ccccc2-c2nnn[nH]2)cc1C1CC1` [Example 276, 1-(5-cyclopropyl-4-propoxy-2′-(1H-tetrazol-5-yl)-[1,1′-biphenyl]-3-yl)-3-(4-cyclopropylphenyl)urea] was 690 nM.
Regarding `O=C(Nc1ccc(F)cc1F)Nc1cc(-c2ccccc2-c2nnn[nH]2)cc(CC2CC2)c1OCC1CC1` [Example 277], half-maximal inhibition (IC50) required 30 nM.
In the case of `O=C(Nc1ccccc1F)Nc1cc(-c2cc(F)ccc2C(=O)O)cc(/C=C/C=C(F)F)c1OCCC(F)(F)F` [Example 281] it was 820 nM.
The value for `O=C(Nc1ccccc1F)Nc1cc(-c2cc(F)ccc2C(=O)O)cc(C/C=C/C(F)(F)F)c1OCCC(F)(F)F` [Example 282] was 1380 nM.
In the case of `CC/C=C/Cc1cc(-c2ccccc2-c2nnn[nH]2)cc(NC(=O)Nc2ccc(C)cc2)c1OCCC` [Example 285] it was 140 nM; in that of `CCCC(CCC)Oc1c(Br)cc(-c2ccccc2-c2nnn[nH]2)cc1NC(=O)Nc1ccc(C)cc1` [Example 286], 470 nM.
As for `C=CC(c1ccccc1)c1cc(-c2ccccc2-c2nnn[nH]2)cc(NC(=O)Nc2ccc(C)cc2)c1OCCC(F)(F)F` (centres unmarked) [Example 290], the IC50 turned out to be 1490 nM.
The value for `C=CC(c1ccccc1)c1cc(-c2ccccc2C(=O)O)cc(NC(=O)Nc2ccc(C)cc2)c1OC1CCC(F)(F)CC1` (centres unmarked) [Example 291] was 730 nM; that for `C=CC(c1ccccc1)c1cc(-c2cc(F)ccc2C(=O)O)cc(NC(=O)Nc2ccc(C)cc2)c1OC1CCC(F)(F)CC1` (centres unmarked) [Example 292] was 3350 nM.
As for `Cc1ccc(NC(=O)Nc2cc(-c3ccccc3C(=O)O)ccc2OCc2ccccc2)cc1` [Example 294], the IC50 is 520 nM. Against the preceding molecule, the IC50 is about 6.4-fold lower.
In turn, `C=CC(c1ccccc1)c1cc(-c2ccccc2-c2nnn[nH]2)cc(NC(=O)Nc2ccc(C)cc2)c1OCC(C)C` (centres unmarked) [Example 299] returned an IC50 of 100 nM.
In the case of `Cc1ccc(NC(=O)Nc2cc(-c3cc(F)ccc3C(=O)O)cc(C/C=C/C(F)(F)F)c2OCCC(F)(F)F)cc1` [Example 302] it was 100 nM; in that of `Cc1ccc(NC(=O)Nc2cc(-c3ccccc3C(=O)O)cc(C/C=C/C(F)(F)F)c2OCCC(F)(F)F)cc1` [Example 303], 160 nM.
The value for `O=C(Nc1ccccc1F)Nc1cc(-c2ccccc2C(=O)O)cc(/C=C/C=C(F)F)c1OCCC(F)(F)F` [Example 305] was 820 nM; that for `CCCC(Oc1ccc(-c2cc(F)ccc2C(=O)O)cc1NC(=O)Nc1ccc(C)cc1)c1ccccc1Cl` (centres unmarked) [Example 306] was 5450 nM.
The molecule `Cc1ccc(NC(=O)Nc2cc(-c3cc(F)ccc3C(=O)O)ccc2OC(CCN2CCOCC2)c2ccccc2)cc1` (centres unmarked) [Example 307] returned an IC50 of 40 nM.
In the case of `CCCC(Oc1ccc(-c2ccccc2-c2nnn[nH]2)cc1NC(=O)Nc1ccc(C)cc1)c1ccc(Cl)cc1` (centres unmarked) [Example 308], the IC50 was 860 nM.
Molecule `Cc1ccc(NC(=O)Nc2cc(-c3cc(F)ccc3C(=O)O)ccc2OC(CCC(F)(F)F)c2ccccc2)cc1` (centres unmarked) [Example 309] came in with an IC50 of 90 nM.
The value for `Cc1ccc(NC(=O)Nc2cc(-c3ccccc3-c3nnn[nH]3)ccc2OC(CCC(F)(F)F)c2ccccc2)cc1` (centres unmarked) [Example 310] was 1720 nM.

In general, IC50 refers to the concentration that inhibits the measured activity by half. A lower IC50 goes with inhibition by little substance.
